Results from patent publication US11326164B2, “Trimethylglycylglycerin compositions and their use in developing anti-cancer drugs and RNA vaccines” (WJWU & LYNN Institute for Stem Cell Research, priority 2019, dated 2022).

Tested on: Human lung epithelial cell line and lung cancer cell lines
Experiment: cell cultivation in TMGG (tolerance)
Assay type: cell-based
Details: cultivated in 0.01˜3.0M TMGG with all necessary supplements, up to 48 hours
Method: Human lung epithelial cell line and lung cancer cell lines were purchased from ATCC and cultivated according to manufacturer's protocols at 37° C. under 5% CO2. Cells were passaged at about 50%-70% confluence by exposing the cells to trypsin/EDTA for about 1 min and then rinsing two times in HBSS containing trypsin inhibitor. The detached cells were replated at 1:5 dilutions in fresh EpiLife medium with HKGS supplements. For miRNA transfection, pri-/pre-miR-302 prepared from Example 1 was dissolved in 0.01˜5.0M, preferably 0.1˜2.0M, of TMGG solution at a desired concentration up to 5 mg/ml and then directly applied to cell culture medium based on the miRNA amount needed. For example, to deliver […] pri-/pre-miR-302, we would need to add 40 μl of the TMGG-dissolved pri-/pre-miR-302 (at 5 mg/ml) into the cell culture medium and then mix well with the cells.

## trimethylglycylglycerins [TMGG]
  adverse effect on cultivated cells: not showing any adverse effect
